pEC50: −log10 of the molar value. Active and inactive are the calls of the source. No rule for the calls is given here.
What follows are molecules tested against Botulinum neurotoxin type A light chain protease (Clostridium botulinum A str. ATCC 3502) (assay: Clostridium botulinum neurotoxin A protease inhibition, microsphere cleavage flow cytometry, dose response (AID 651879)). Details: multiplex microsphere protease cleavage assay.

| Compound | EC50 | pEC50 |
| --- | --- | --- |
| COc1ccc(N2N=C(c3ccccn3)CC2c2ccccc2)cc1 (centres undefined) | > 20 µM (inactive) |  |
| COc1ccc(N2N=C(c3ccc(SC)cc3)CC2c2ccccc2)cc1 (centres undefined) | > 20 µM (inactive) |  |
| O=C(c1ccc(N2N=C(c3ccccc3)CC2c2ccccc2)cc1)N1CCCCC1 (centres undefined) | > 20 µM (inactive) |  |
| CSc1ccc(C2=NN(c3ccc([N+](=O)[O-])cc3)C(c3ccccc3)C2)cc1 (centres undefined) |  | 6.30 |
| CSc1ccc(C2=NN(c3ccc(C(=O)N4CCCCC4)cc3)C(c3ccccc3)C2)cc1 (centres undefined) | > 20 µM (inactive) |  |
| CS(=O)(=O)c1ccc(N2N=C(c3ccccc3)CC2c2ccccc2)cc1 (centres undefined) | > 20 µM (inactive) |  |
| c1ccc(-c2cc(-c3ccccc3)n(-c3ccccc3)n2)cc1 | > 20 µM (inactive) |  |
| NS(=O)(=O)c1ccc(N2N=C(c3cccnc3)CC2c2ccccc2)cc1 (centres undefined) | > 20 µM (inactive) |  |
| CSc1ccc(C2=NN(c3ccc(C(=O)N4CCOCC4)cc3)C(c3ccccc3)C2)cc1 (centres undefined) | > 20 µM (inactive) |  |
| CS(=O)(=O)c1ccc(N2N=C(c3cccnc3)CC2c2ccccc2)cc1 (centres undefined) | > 20 µM (inactive) |  |
| O=C(c1ccc(N2N=C(c3ccccc3)CC2c2ccccc2)cc1)N1CCOCC1 (centres undefined) | > 20 µM (inactive) |  |
| CSc1ccc(C2=NN(c3ccc(S(N)(=O)=O)cc3)C(c3ccccc3)C2)cc1 (centres undefined) | > 20 µM (inactive) |  |
| CS(=O)(=O)c1ccc(N2N=C(c3ccncc3)CC2c2ccccc2)cc1 (centres undefined) | > 20 µM (inactive) |  |
| COc1ccc(N2N=C(c3ccccc3)CC2c2ccccc2)cc1 (centres undefined) | > 20 µM (inactive) |  |
| c1ccc(C2CC(c3cccnc3)=NN2c2ccccc2)cc1 (centres undefined) | > 20 µM (inactive) |  |
| COc1ccc(N2N=C(c3cccnc3)CC2c2ccccc2)cc1 (centres undefined) | > 20 µM (inactive) |  |
| CNC(=O)c1ccc(N2N=C(c3ccc(SC)cc3)CC2c2ccccc2)cc1 (centres undefined) | > 20 µM (inactive) |  |
| CSc1ccc(C2=NN(c3ccc(S(C)(=O)=O)cc3)C(c3ccccc3)C2)cc1 (centres undefined) | > 20 µM (inactive) |  |
| NS(=O)(=O)c1ccc(N2N=C(c3ccccc3)CC2c2ccccc2)cc1 (centres undefined) | > 20 µM (inactive) |  |
| NS(=O)(=O)c1ccc(N2N=C(c3ccncc3)CC2c2ccccc2)cc1 (centres undefined) | > 20 µM (inactive) |  |
| COc1ccc(N2N=C(c3ccncc3)CC2c2ccccc2)cc1 (centres undefined) | > 20 µM (inactive) |  |
| CSc1ccc(C2=NN(c3ccccc3)C(c3ccccc3)C2)cc1 (centres undefined) | > 20 µM (inactive) |  |
| CC(C)CNC(=O)c1ccc(N2N=C(c3ccccc3)CC2c2ccccc2)cc1 (centres undefined) | > 20 µM (inactive) |  |
| c1ccc(C2=NN(c3ccccc3)C(c3ccccc3)C2)cc1 (centres undefined) | > 20 µM (inactive) |  |
| c1ccc(C2CC(c3ccccn3)=NN2c2ccccc2)cc1 (centres undefined) | > 20 µM (inactive) |  |
| c1ccc(C2CC(c3ccncc3)=NN2c2ccccc2)cc1 (centres undefined) | > 20 µM (inactive) |  |
| CNC(=O)c1ccc(N2N=C(c3ccccc3)CC2c2ccccc2)cc1 (centres undefined) | > 20 µM (inactive) |  |
| CC(C)NC(=O)c1ccc(N2N=C(c3ccccc3)CC2c2ccccc2)cc1 (centres undefined) | > 20 µM (inactive) |  |
| O=[N+]([O-])c1ccc(N2N=C(c3ccccc3)CC2c2ccccc2)cc1 (centres undefined) | > 20 µM (inactive) |  |

From PubChem BioAssay AID651879 (NMMLSC, 2012)
